Results from patent US10538571B2, “Compositions and methods for neurological diseases” (Coda Biotherapeutics, Inc., priority 2017, dated 2020).

What was measured:
[1] = molecular target: T1, SEQ ID NO:33 with substitution L131S (Homo sapiens, UniProt P36544, F159M/H163T/I152M/L131S/R155K/V154L/W156N/Y151P); experiment: Electrophysiology, automated patch clamp in HEK293T cells; assay type: cell-based; conditions: FIG. 10A
T1 construct: expressed in transfected cells; host or cells: Lenti-X 293T (HEK293T) cells, pcDNA3.1(+) plasmid
T1 sequence (P36544 with tags, fused parts or gaps L131S/Y151P/I152M/V154L/R155K/W156N/F159M/H163T): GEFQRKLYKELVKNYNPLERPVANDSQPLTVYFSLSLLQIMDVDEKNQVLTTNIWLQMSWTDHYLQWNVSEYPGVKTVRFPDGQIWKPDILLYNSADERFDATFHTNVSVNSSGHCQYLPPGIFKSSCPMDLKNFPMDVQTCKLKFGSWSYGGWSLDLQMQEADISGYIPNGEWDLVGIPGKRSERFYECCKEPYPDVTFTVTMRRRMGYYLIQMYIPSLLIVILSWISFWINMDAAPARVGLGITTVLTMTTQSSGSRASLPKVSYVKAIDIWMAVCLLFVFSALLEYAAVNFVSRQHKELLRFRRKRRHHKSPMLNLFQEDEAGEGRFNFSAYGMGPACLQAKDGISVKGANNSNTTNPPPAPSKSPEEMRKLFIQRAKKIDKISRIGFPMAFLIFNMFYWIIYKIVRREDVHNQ
Description: (§1) For HEK293T studies, cDNAs encoding ion channels were cloned into pcDNA3.1 using standard recombination techniques. HEK293T cells from Clontech (Lenti-X™ 293T Cell Line) were cultured in DMEM supplemented with 10% FBS and 1% Pen/Strep to 40-50% confluence using standard cell culture protocols, transfected with ion channel plasmids at a concentration of 18 μg per 15 cm dish using Fugene 6, and grown for an additional 24 hours. Cells were then assayed on a medium throughput electrophysiological system (IonFluxHT and/or Mercury, Fluxion Biosciences) in which dose-response relationships may be assessed through a microfluidics-based platform for establishing whole cell configurations. Ensemble plates were primed with extracellular buffer (140 mM NaCl, 5 mM KCl, 2 mM CaCl2, 1 mM MgCl2, 10 mM HEPES, and 10 mM glucose, pH 7.2 with NaOH, mOsm 310), intracellular buffer (145 mM CsCl, 2 mM CaCl2, 2 mM MgCl2, 10 mM HEPES, and 10 mM EGTA, pH 7.2 with CsOH, mOsm 305), as adapted from Lynagh and Lynch, and test compounds (stocks prepared fresh) diluted in extracellular buffer. Cells were then released from the plate with Accutase, centrifuged, resuspended in extracellular buffer, and loaded into Ensemble plates. Cells were then subjected to a standard protocol for priming, trapping, breaking, and establishing whole cell configuration, with cells held at −60 mV throughout the recording. After recording baseline, progressive doses of test compounds were applied using the IonFlux software to assess dose response relationships. Data were then analyzed off-line using custom Python scripts to convert data to .csv format, re-plot traces, and apply QC measurements to reject unstable recordings (i.e. thresholding based on access resistance and/or standard deviation in baseline, as well as artifact rejection). Peak currents were then calculated and population data were fit using a 4-parameter logistic equation as described by the Hill Equation

[2] = molecular target: T2, SEQ ID NO:33 with substitution S172D (Homo sapiens, UniProt P36544, F159M/H163T/I152M/R155K/S172D/V154L/W156N/Y151P); experiment: as above; assay type: cell-based; conditions: FIG. 10B
T2 construct: expressed in transfected cells; host or cells: Lenti-X 293T (HEK293T) cells, pcDNA3.1(+) plasmid
T2 sequence (P36544 with tags, fused parts or gaps Y151P/I152M/V154L/R155K/W156N/F159M/H163T/S172D): as the sequence (P36544 with tags, fused parts or gaps L131S/Y151P/I152M/V154L/R155K/W156N/F159M/H163T) above, with S109L, S150D counted along it
Description: as §1

[3] = molecular target: T3, SEQ ID NO:33 with substitution L131T (Homo sapiens, UniProt P36544, F159M/H163T/I152M/L131T/R155K/V154L/W156N/Y151P); experiment: as above; assay type: cell-based; conditions: FIG. 10D
T3 construct: expressed in transfected cells; host or cells: Lenti-X 293T (HEK293T) cells, pcDNA3.1(+) plasmid
T3 sequence (P36544 with tags, fused parts or gaps L131T/Y151P/I152M/V154L/R155K/W156N/F159M/H163T): as the sequence (P36544 with tags, fused parts or gaps L131S/Y151P/I152M/V154L/R155K/W156N/F159M/H163T) above, with S109T counted along it
Description: as §1

[4] = molecular target: T4, SEQ ID NO:33 with substitution W77M (Homo sapiens, UniProt P36544, F159M/H163T/I152M/R155K/V154L/W156N/W77M/Y151P); experiment: as above; assay type: cell-based; conditions: FIG. 10C
T4 construct: expressed in transfected cells; host or cells: Lenti-X 293T (HEK293T) cells, pcDNA3.1(+) plasmid
T4 sequence (P36544 with tags, fused parts or gaps W77M/Y151P/I152M/V154L/R155K/W156N/F159M/H163T): as the sequence (P36544 with tags, fused parts or gaps L131S/Y151P/I152M/V154L/R155K/W156N/F159M/H163T) above, with W55M, S109L counted along it
Description: as §1

[5] = test system: spared nerve injury (SNI) model; experiment: Spared nerve injury (SNI) model of neuropathic pain, mechanical withdrawal threshold (von Frey, up-down method) after AAV.hSYN-α7-nAChR/GlyRα1 injection; assay type: in vivo, rat; conditions: for reversal of mechanical hypersensitivity: single IP injection
Excerpt: Eight expression cassettes are constructed using standard molecular biology techniques. All contain a human synapsin-1 (hSYN) promoter linked to engineered chimeric receptors comprising a ligand binding domain of α7-nAChR and a Cys-loop domain and ion pore domain of GlyRα1. Their design is as follows:
These cassettes are subcloned into AAV bacmids, purified, transfected into Sf9 insect cells to produce recombinant bacuvlovirus, and then amplified. Sf9 cells are double infected using the amplified recombinant baculovirus containing the hSYN-α7-nAChR/GlyRα1 cassettes and another recombinant baculovirus containing the Rep and AAV6(Y705+731F+T492V) Cap genes to produce recombinant AAV vectors. The viral vectors are purified, viral titer determined using qPCR, and SDS-PAGE used to verify the purity of AAV vectors.
To produce mechanical hypersensitivity in a model that mimics a neuropathic pain condition, the spared nerve injury (SNI) model (a validated model of mechanical allodynia) is used (Shields et al., 2003, The Journal of Pain, 4, 465-470). This model is produced by the sectioning of the common peroneal and the sural nerves and isolating the tibial branch. Mechanical withdrawal threshold is assessed by placing rats on an elevated wire-mesh grid and stimulating the plantar surface of the hind paw with von Frey filaments.
A dorsal hemilaminectomy is made at the level of the lumbar enlargement to expose two segments (about 1.5-2 mm) of lumbar spinal cord, after which the dura mater is incised and reflected. The viral solution is loaded into a glass micropipette (prefilled with mineral oil). The micropipette is connected to a manual micro-injector mounted on a stereotactic apparatus. The viral solution is targeted to the dorsal horn (left side). Along the rostro-caudal axis within the exposed region, 6 injections of 240 nl each are performed, in an equidistant linear fashion. After each injection, 1 min of resting time is observed and then the muscle layer is sutured, the skin closed with staples, and the animals were allowed to recover with heated-pad before they were returned to their home cages. Animals are perfused for histological analysis after the last behavior test.
The injection is performed with a borosilicate glass capillary (0.78/1 mm internal/external diameters) pulled to a fine point, attached by polyethylene tubing (0.4/0.8 mm internal/external diameters) to a syringe mounted in a microinjection pump. The needle is mounted on an extended arm of a stereotaxic frame swung to the outside (used to hold and manipulate the needle only). Tubing, syringe, and needle are all filled with water. One microliter air is taken up into the needle followed by 3 μL of the viral vector solution. The needle is loaded separately with this volume for each injection. Animals are anesthetized prior to surgery. Following an incision along the dorsal midline, the L4 and L5 DRG are exposed by removal of the lateral processes of the vertebrae. The epineurium lying over the DRG is opened, and the glass needle inserted into the ganglion, to a depth of 400 μm from the surface of the exposed ganglion. After a 3-minute delay to allow sealing of the tissue around the glass capillary tip, 1.1 μL virus solution was injected at a rate of 0.2 μL/minute. After a further delay of 2 minutes, the needle is removed. The L4 ganglion is injected first followed by the L5 ganglion. The muscles overlying the spinal cord are loosely sutured together with a 5-0 suture and the wound closed. Animals are allowed to recover at 37° C. and received postoperative analgesia.
Rats are first anesthetized and then placed vertically with their head fixed in a stereotaxic frame. An incision is made in the base of the neck to expose the groove in the nuchal crest. An incision is made (1-2 mm) in the cisternal membrane to a depth such that cerebrospinal fluid leaks out. […]

## c1cnc2c(c1)C[C@@]1(CN3CCC1CC3)O2 [AZD-0328]
[1]
  right-ward shift in EC50 relative to parental chimera SEQ ID NO:33: 2 fold
[2]
  right-ward shift in EC50 relative to parental chimera SEQ ID NO:33: 2 fold
[3]
  right-ward shift in EC50 relative to parental chimera SEQ ID NO:33: ~1 log
[4]
  right-ward shift in EC50 relative to parental chimera SEQ ID NO:33: > 2.5 log
[5]; after single IP injection
  duration of the reversal of mechanical hypersensitivity: at least 2 days
[5]; contralateral side
  effect on mechanical threshold in the absence of vector: no measurable effect
[5]; injected again on the third day, followed for 48 hours
  mechanical thresholds after second IP injection: recovery to non-injury baseline thresholds
[5]; high dose of ligand, all rats (Chimera 1-8)
  reversal of mechanical hypersensitivity: complete reversal
[5]; low dose, rats receiving Chimera 1, 2, 4, 5, 6 and 8
  reversal of mechanical hypersensitivity: complete reversal
[5]; low dose, rats receiving Chimera 3 and 7
  reversal of mechanical hypersensitivity: partial reversal
